Experimental findings from ChEMBL document CHEMBL1759919, “1α,25-Dihydroxyvitamin D3-3β-bromoacetate, a potential cancer therapeutic agent: synthesis and molecular mechanism of action” (Bioorg Med Chem Lett, 2011) are described below.

Common to all, as to assay type: functional, cell-based
Assay [1] concerns A498. Kind of assay: Induction of CYP24 mRNA expression in human A498 cells at 10^-8 M after 4 hrs by RT-PCR analysis.
In assay [2] the test system is A498. Kind of assay: Induction of CYP24 mRNA expression in human A498 cells at 10^-8 M after 16 hrs by RT-PCR analysis.
For assay [3], the system named is A498. The assay is described as follows: Induction of CYP24 mRNA expression in human A498 cells at 10^-6 M after 24 hrs by RT-PCR analysis.

SMILES strings stand for the structures. Calls of active or inactive are those of the source. The calls are words filed in the database; no cut-off is given here.

For `C=C1/C(=C\C=C2/CCC[C@]3(C)[C@@H]([C@H](C)CCCC(C)(C)O)CC[C@@H]23)C[C@@H](O)C[C@@H]1O`, the outcome in the assay on A498 [1] and in the assay with A498 [2] was Active.
In the case of `C=C1/C(=C\C=C2/CCC[C@]3(C)[C@@H]([C@H](C)CCCC(C)(C)O)CC[C@@H]23)C[C@@H](OC(=O)CBr)C[C@@H]1O`, the outcome in the assay on A498 [3] and with A498 [2] was Active.
